This is an account of results in patent US8058243B2, “Method for treating a brain cancer with ifenprodil” (HSC Research and Development Limited Partnership, priority 2006, dated 2011).

The assay relates to murine neural precursor cells (neurosphere cultures). Briefly: HTS of LOPAC library against secondary neurosphere cultures, MTT proliferation assay at 3 μM, day 7 (z score, P value). Format: cell-based, mouse.
[1] abbreviates: LOPAC screen, neurosphere MTT proliferation, 3 μM, day 7.
Where [2] appears, read: yes/no: significantly inhibited neurosphere proliferation (P<0.01) in primary screen.
Setting [3] is: LOPAC library screen at 3 μM, secondary neurosphere cultures, MTT.
The mark [4] stands for this setting: LOPAC primary screen, neurosphere MTT proliferation, 3 μM, day 7.
Setting [5] is: yes/no: significantly inhibited neurosphere proliferation (P<0.01) in the primary screen.
The mark [6] stands for this setting: LOPAC library screen, 3 μM, MTT, neurosphere cultures.
[7] abbreviates: primary LOPAC screen, 3 μM, MTT, neurosphere proliferation.
[8] abbreviates: yes/no: significantly inhibited neurosphere proliferation in the primary screen.
Setting [9] is: LOPAC library screen, 3 μM, MTT, secondary neurosphere cultures, day 7.
Where [10] appears, read: yes/no: significantly inhibited neurosphere proliferation in primary screen.
The mark [11] stands for this setting: yes = significantly inhibited neurosphere proliferation (P<0.01) in the primary screen.

Counter-ions that a name gives are not always drawn. Like-named read-outs stand apart in the source and are kept apart here.

In the case of `Nc1nccc2c1ncn2[C@@H]1O[C@H](CO)[C@@H](O)[C@H]1O` [3-deazaadenosine], the “Z Score” value (LOPAC library screen at 3 μM, MTT, secondary neurosphere cultures, screened in singlets) is listed as 1.77. Under setting [1], this compound gave a Z score of 1.770. Under setting [2], the Activity entry was “no”.

Turning to `CN(C)CCCN1c2ccccc2Sc2ccccc21` [Promazine hydrochloride], the “Z Score” value under setting [3] is recorded as −0.8882. The Z score under setting [4] is reported as −0.888. In addition, under setting [5], the Activity result is reported as “no”.

Turning to `CCCCC1(C2CCCC2)Cc2cc(OCC(=O)O)c(Cl)c(Cl)c2C1=O` (stereo in doubt) [R(+)-Butylindazone], the “Z Score” value stood at 0.02924. The compound also had a Z score under setting [1] of 0.029. Moreover, the Activity result under setting [2] is “no”.

On to `NCCS(=O)(=O)O` [Taurine], for which the “Z Score” value under setting [6] is recorded as 0.5328. Under setting [7], the Z score was determined as 0.533. Under setting [8], the Activity result is listed as “no”.

With `CCCn1c(=O)c2c(ncn2C)n(CCC)c1=O` [1,3-Dipropyl-7-methylxanthine], where the note is “168 h, 3 µM”, the “Z Score” value is recorded as −0.08896 and the Z score is recorded as −0.089. For the same compound, the Activity entry under setting [2] is listed as “no”.

In the case of `C=C[C@H]1C[N@@]2CC[C@H]1C[C@@H]2[C@@H](O)c1ccnc2ccc(OC)cc12` [Quinidine sulfate], the “Z Score” value under setting [9] is reported as −1.93. The compound also gave a Z score under setting [4] of −1.930. Besides, the Activity entry under setting [10] is given as “no”.

As for `CC(C)(C)NCC(O)c1ccc(O)c(CO)c1` (centres unmarked) [Salbutamol], the “Z Score” value under setting [9] was −1.678. Besides, the Z score under setting [4] is −1.678. Also, under setting [10], the Activity entry is on record as “no”.

Take `CN1CCc2cc3c(cc2[C@H]1[C@@H]1OC(=O)c2c1ccc1c2OCO1)OCO3` [(+)-Bicuculline]: the “Z Score” value is −0.1989. Besides, the Z score under setting [4] is −0.199. The Activity entry under setting [5] was “no”.

For (+)-Catechin Hydrate, the “Z Score” value under setting [6] is given as 0.5105. Further, under setting [7], the Z score is 0.511. Besides, under setting [8], the Activity entry was “no”.

`NS(=O)(=O)Cc1noc2ccccc12` [Zonisamide sodium]: the “Z Score” value under setting [3] was −0.9169. Moreover, the Z score under setting [7] is listed as −0.917. Moreover, the Activity entry under setting [8] is recorded as “no”.

`CNCCC(Oc1ccccc1OC)c1ccccc1` (centres unmarked) [Nisoxetine hydrochloride]: the “Z Score” value was found to be 0.8336 and the Z score was 0.834.

On to `Nc1ncnc2c1nc(Sc1ccc(Cl)cc1)n2C1OC2COP(=O)(O)OC2C1O` (stereo in doubt) [8-(4-Chlorophenylthio)-cAMP sodium], for which the “Z Score” value under setting [6] was determined as 1.217. The compound also registered a Z score under setting [1] of 1.217. Further, the Activity entry under setting [2] was “no”.

In the case of `CCCN(CCC)CCc1ccc(O)c(O)c1` [Dipropyldopamine hydrobromide], the “Z Score” value was −1.346. For the same compound, the Z score under setting [1] is −1.346.

Compound `O=Nc1ccc2oc(=O)ccc2c1` [6-Nitroso-1,2-benzopyrone] displayed a Z score under setting [4] of 0.011. Besides, under setting [11], the Activity result was “no”.

For `COc1ccc2c(c1)c(CC(=O)O)c(C)n2Cc1ccc(Cl)cc1` [1-(4-Chlorobenzyl)-5-methoxy-2-methylindole-3-acetic acid], the “Z Score” value under setting [9] is on record as −1.584. Besides, the Z score under setting [7] is on record as −1.584. Moreover, under setting [8], the Activity entry is “no”.

As to `CC(N/C(=N\C#N)Nc1ccncc1)C(C)(C)C` (centres unmarked) [Pinacidil], the “Z Score” value under setting [9] is given as −2.117. Under setting [4], the Z score is reported as −2.117. The Activity entry under setting [10] is reported as “no”.

Take `COc1ccc(CNC(=O)/C=C/c2ccc3[nH]cc(CCN(C)C)c3c2)cc1` [GR 4661]: the “Z Score” value is reported as 0.1015. Under setting [4], this compound displayed a Z score of 0.102. Moreover, the Activity result under setting [11] was “no”.

In turn, `Br.CCCN(CCC)C1CCc2cccc(O)c2C1` (racemic) [(±)-8-Hydroxy-DPAT hydrobromide] displayed a Z score under setting [4] of 0.656. For the same compound, the Activity result under setting [5] was “no”.

For `NS(=O)(=O)c1cc2c(cc1Cl)NC(C1CC3C=CC1C3)NS2(=O)=O` (centres unmarked) [Cyclothiazide], under setting [3], the “Z Score” value is listed as −0.907. Under setting [1], this compound registered a Z score of −0.907. The Activity result under setting [2] was “no”.
